Source: patent publication EP3498270A1, “SLOW RELEASE FORMULATIONS OF CELL CYCLE REGULATORS AND ANTI-CANCER AGENTS FOR LOCAL TREATMENT OF SOLID CANCER” (Urogen Pharma Ltd., priority 2017, dated 2019)
Like-named read-outs stand apart in the source and are kept apart here.

What was measured:
RT-4 cells [1] = assay: Cell cytotoxicity / apoptosis (Annexin V FITC and PI staining, flow cytometry); type: cell-based, human; details: 1mM HU 20 hours, wash; for late apoptosis: after 2 hours Gem 5µM 8 hours, 72 hours from HU washes; for percentages of apoptotic cells: after 2 hours 10µM MMC 8 hours, 48 hours after HU withdrawal
Procedure: After 24 hours to 5 days from HU washes, cells were stained with Annexin V FITC and PI for identifying apoptotic cells according to standard protocols.

UMUC-3 cells [2] = assay: XTT cell viability assay; type: cell-based, human; details: for viability at 1000 µM / EC50: Homo sapiens
Procedure: Cells were treated with 0-16mM HU/ Control (DMSO or RPMI medium only) for up to 20 hours. […] XTT assay for cytotoxicity was then performed and plates were analyzed in an ELISA reader at wave length of 490nm.
The methods used were as described in the other examples. Briefly, UMUC-3 cells were cultured in 96 well microculture plates. Cells were pretreated with 1mM HU (or DMSO- vehicle control) for 2 hours. […] The percentage of viable cells presented in the figures and table was calculated from untreated cells with viability of 100%.

UMUC-3 cells [3] = assay: Cell cytotoxicity / apoptosis (Annexin V FITC and PI staining, flow cytometry); details: 1mM HU 20 hours, wash, after 2 hours 10µM MMC 8 hours; 48 hours after HU withdrawal
UMUC-3 cells [4] = assay: Cell cycle distribution (PI staining, flow cytometry); type: cell-based, human
Procedure: (§1) A Cyan Flow cytometer was used for determining DNA content and cell cycle distribution of UMUC-3 and RT-4 cells. Cells were seeded in 6 well plates (10^6 cells/well) and incubated overnight. Cells were then cultured with cell cycle modulator (0.1-15mM HU or 0.25µM PD0332991) or with DMSO (vehicle control) for up to 20 hours (HU) or 24 hours (PD0332991). Then, the HU, PD0332991 (or DMSO) was washed and replaced by fresh media and cells were fixed at different time points following washes. The fixation was done by a fixation buffer that purchased from ENCO (Cayman). Minimum 2 hours after the fixation, cells were washed and labeled with propidium iodide (PI) for 15 min in the dark. Cells were analyzed by flow cytometry (PI staining was detected in FL3, […] laser).
(§2) Unless otherwise indicated, methods were as described in Example 1. In order to investigate the influence of HU on cell cycle distribution in bladder cancer cell lines, UMUC-3 and RT-4 cells were treated with 1mM HU (or DMSO for vehicle control) for 20 hours. Cell cycle distribution was observed immediately after HU exposure and 2, 4, 6, 8, and 10 hours following HU withdrawal.

RT-4 cells [5] = assay: as above; type: cell-based, human; details: 1mM HU for 20 hours, 4 hours from HU withdrawal
Procedure: as §1, §2

RT-4 cells [6] = assay: XTT cell viability assay; type: cell-based; details: Homo sapiens, RT-4, read-out: MMC EC50 concentration value

SMILES	late apoptosis (RT-4 cells [1])	viability (UMUC-3 cells [2]; 1mM HU 20 hours, wash, after 2 hours Gem (EC50) 8 hours)	percentages of apoptotic cells (RT-4 cells [1])	percentages of apoptotic cells (UMUC-3 cells [3])	viability at 1000 µM (UMUC-3 cells [2]; UMUC3, 1mM HU 20 hours, wash, after 2 hours Gem (EC50) 8 hours)	viability at 1000 µM (UMUC-3 cells [2]; UMUC3, short exposure: 1mM HU 2 hours, 2 hours wash, 20µM MMC 2 hours, analysed after 48 hours)	percentage of cells at the S phase (UMUC-3 cells [4]; 1mM HU for 20 hours, 4 hours from HU withdrawal)	increase in S phase accumulation (UMUC-3 cells [4]; 1mM HU for 20 hours, versus DMSO control, 4 hours from HU withdrawal)	S phase accumulation (UMUC-3 cells [4]; HU 0.5 to 4mM for 20 hours, 6 hours after the HU wash)	influence on cell cycle distribution (UMUC-3 cells [4]; HU concentrations lower than 0.1mM)	percentage of cells at the S phase (RT-4 cells [5])	increase in S phase accumulation (RT-4 cells [5]; versus DMSO control)	EC50 (UMUC-3 cells [2]; UMUC3, 2 h, read-out: MMC EC50 value)	EC50 (UMUC-3 cells [2]; UMUC3, read-out: MMC EC50 concentration value)	EC50 (RT-4 cells [6])
Nc1ccn([C@@H]2O[C@H](CO)[C@@H](O)C2(F)F)c(=O)n1 [Gem, Gemcitabine]	22.2%	50.9%													
NC(=O)NO [HU, Hydroxyurea]	5.9%		4.8%	8.1%	71.3%	86.1%	57.0%	approximately 3 fold	greater than 50%	no significant influence	48.6%	approximately 6 fold			
CO[C@@]12[C@H](COC(N)=O)C3=C(C(=O)C(C)=C(N)C3=O)N1C[C@@H]1N[C@@H]12 [MMC, Mitomycin C]			13.4%	21.4%									20 µM	10 µM	5 to 20 µM
